The target of the assay is T1, human TAS1R2-WT/TAS1R3-P780A (Homo sapiens, UniProt Q7RTX0+Q8TE23, P780A).
T1 construct: expressed in transfected cells; host or cells: HEK293T stably expressing Gα16gust44
T1 sequence (Q8TE23 20-839): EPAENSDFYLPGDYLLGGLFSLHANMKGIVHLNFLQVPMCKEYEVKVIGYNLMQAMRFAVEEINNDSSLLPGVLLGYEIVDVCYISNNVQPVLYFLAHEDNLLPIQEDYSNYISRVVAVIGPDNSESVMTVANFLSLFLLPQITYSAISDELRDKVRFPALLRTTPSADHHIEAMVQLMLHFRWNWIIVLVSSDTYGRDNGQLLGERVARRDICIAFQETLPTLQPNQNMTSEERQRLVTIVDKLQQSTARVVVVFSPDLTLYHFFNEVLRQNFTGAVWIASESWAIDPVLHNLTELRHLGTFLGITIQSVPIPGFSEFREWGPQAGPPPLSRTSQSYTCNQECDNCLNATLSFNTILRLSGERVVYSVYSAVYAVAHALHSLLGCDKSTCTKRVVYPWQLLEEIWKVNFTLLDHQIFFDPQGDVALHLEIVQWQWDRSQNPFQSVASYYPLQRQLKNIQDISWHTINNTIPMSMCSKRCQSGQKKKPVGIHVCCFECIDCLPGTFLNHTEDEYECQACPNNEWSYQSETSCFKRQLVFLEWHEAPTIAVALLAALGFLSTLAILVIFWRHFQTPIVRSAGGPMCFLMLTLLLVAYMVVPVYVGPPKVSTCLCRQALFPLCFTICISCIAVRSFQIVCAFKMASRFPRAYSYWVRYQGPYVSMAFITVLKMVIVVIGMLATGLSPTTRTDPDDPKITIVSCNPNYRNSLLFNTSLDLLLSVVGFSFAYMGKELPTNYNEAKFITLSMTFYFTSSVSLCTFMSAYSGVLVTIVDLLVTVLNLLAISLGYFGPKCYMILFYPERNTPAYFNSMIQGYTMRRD
T1 sequence (Q7RTX0 21-852 P780A): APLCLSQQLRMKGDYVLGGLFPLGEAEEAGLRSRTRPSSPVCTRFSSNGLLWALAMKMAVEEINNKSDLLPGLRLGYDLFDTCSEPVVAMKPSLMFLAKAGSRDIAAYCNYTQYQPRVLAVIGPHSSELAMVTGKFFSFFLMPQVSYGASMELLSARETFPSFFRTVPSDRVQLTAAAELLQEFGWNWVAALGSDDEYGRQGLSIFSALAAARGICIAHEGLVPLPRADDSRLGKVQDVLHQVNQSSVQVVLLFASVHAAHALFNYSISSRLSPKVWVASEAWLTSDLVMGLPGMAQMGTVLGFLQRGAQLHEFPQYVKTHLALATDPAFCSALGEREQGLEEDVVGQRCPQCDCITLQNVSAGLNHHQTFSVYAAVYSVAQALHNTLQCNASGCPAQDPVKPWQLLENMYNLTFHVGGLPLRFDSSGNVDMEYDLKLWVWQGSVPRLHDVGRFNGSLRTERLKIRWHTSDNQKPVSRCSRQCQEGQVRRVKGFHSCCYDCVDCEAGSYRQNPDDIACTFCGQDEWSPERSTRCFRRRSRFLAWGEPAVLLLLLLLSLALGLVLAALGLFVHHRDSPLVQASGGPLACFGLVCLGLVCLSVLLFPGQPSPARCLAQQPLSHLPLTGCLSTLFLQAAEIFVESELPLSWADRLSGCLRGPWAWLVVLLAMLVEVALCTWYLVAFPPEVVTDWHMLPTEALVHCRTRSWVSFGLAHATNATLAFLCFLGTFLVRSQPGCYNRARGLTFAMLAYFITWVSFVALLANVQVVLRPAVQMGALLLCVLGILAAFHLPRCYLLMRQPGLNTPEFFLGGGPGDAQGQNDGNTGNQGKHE
Put plainly: Calcium mobilisation assay, TAS1R2-WT with TAS1R3 variant P780A. As to conditions: for Max ΔF/F0: maximal signal amplitude. Type of assay: cell-based. The source says:
The coding sequences for TAS1R2 and TAS1R3 were commercially synthesised, and the human codon was optimised for expression in human cells. The coding sequences of human TAS1R2 and TAS1R3 were subcloned and inserted into the mammalian expression vectors pcDNA6/myc-HisA and pcDNA4/myc-HisA (Invitrogen; Thermo Fisher Scientific; Illkirch, France) between the EcoRI and NotI restriction sites, generating the plasmids pcDNA6-TAS1R2 and pcDNA4-TAS1R3, respectively. To increase protein expression in mammalian cells, an upstream start codon was used, which was a sequence called MAX, corresponding to the QBI SP163 element also described in pcDNA4-HisMax (Invitrogen; Thermo Fisher Scientific; Illkirch, France). To measure the expression level of the receptor by immunohistochemistry, we used the FLAG sequence ([…]) in the C-terminal position, which encodes the FLAG tag epitope. SNP variants of TAS1R2 and TAS1R3 were constructed based on […], respectively, using site-directed mutagenesis (Genewiz; Leipzig, Germany).
The HEK293T cells were kindly provided by Jay P. Slack (Givaudan Flavors Corporation; Cincinnati, OH, USA). HEK293T cells stably transfected with Gα16gust44 [43, 67] were seeded in poly-D-lysine-coated clear-bottom black 96-well plates (0.35 × 10^5 cells/well) in high-glucose DMEM supplemented with 2 mM GlutaMAX, 10% dialysed foetal bovine serum with penicillin/streptomycin and G418 (400 μg/mL) at 37 °C and 6.3% CO2 in a humidified atmosphere as previously reported. […] As a negative control, HEK293T cells were mock-transfected with the empty expression vector. After a further 24 h of incubation, the HEK293T cells were washed with C1 buffer (130 mM NaCl, 5 mM KCl, 10 mM HEPES pH 7.4 and 2 mM CaCl2). The 96-well plates containing the cells were then stimulated with sweet-tasting compounds. […] Different concentration ranges were tested depending on the sweet compound injected. The Ca^2+ changes were expressed as fractional changes in fluorescent light intensity: ΔF/F = (F − F0)/F0, where F was the fluorescent light intensity at each point, and F0 was the value of emitted fluorescent light prior to stimulus application. To calculate dose–response relationships, the changes in fluorescence upon stimulus application were averaged, mock-subtracted and baseline-corrected. The dose–response data obtained were adjusted using a 4-parameter logistic equation. The half-maximal effective concentrations (EC50 values) and maximal signal amplitudes were calculated using SigmaPlot software (version 15.0) (Systat Software; San Jose, CA, USA).
For in vitro calcium mobilisation assay performed on hTAS1R2-SNPs, hTAS1R3-SNPs and mTAS1R3-I60T, 6 to 7 concentrations were tested for each sweet compound, plus buffer alone. All concentration–receptor combinations were measured in duplicate, and each experiment was repeated at least 4 times (8 wells/concentration). Results were expressed for each concentration as ΔF/F mean ± SEM and represented as dose–response curves.
For orientation: A change in cytosolic calcium serves as a functional read-out for many receptors and channels.

Like-named read-outs stand apart in the source and are kept apart here. No end group written: not given here.

For the molecule `CC1=CC(=O)NS(=O)(=O)O1` [Acesulfame K, acesulfame K], the “R1 = Variant EC50/WT EC50” value came to 0.7 and the “Max ΔF/F0” value is on record as 0.30 ± 0.01. In addition, the EC50 (read-out: EC50) turned out to be 421 ± 31 µM.
On to `O=S(=O)(O)NC1CCCCC1` [Cyclamate, cyclamate], for which, under “read-out: EC50”, the EC50 was found to be 1170 ± 62 µM.
For `C[C@H](CC[C@@H](O[C@@H]1O[C@H](CO[C@@H]2O[C@H](CO)[C@@H](O)[C@H](O)[C@H]2O)[C@@H](O)[C@H](O)[C@H]1O[C@@H]1O[C@H](CO)[C@@H](O)[C@H](O)[C@H]1O)C(C)(C)O)[C@H]1CC[C@@]2(C)[C@@H]3CC=C4[C@@H](CC[C@H](O[C@@H]5O[C@H](CO[C@@H]6O[C@H](CO)[C@@H](O)[C@H](O)[C@H]6O)[C@@H](O)[C@H](O)[C@H]5O)C4(C)C)[C@]3(C)[C@H](O)C[C@]12C` [Mogroside V, mogroside V], the “R1 = Variant EC50/WT EC50” value was 0.7 and the “Max ΔF/F0” value was 1.13 ± 0.04. In addition, where the note is “read-out: EC50”, the EC50 was found to be 22.5 ± 2.2 µM.
The matching figures for `COc1ccc(CCC(=O)c2c(O)cc(O[C@@H]3O[C@H](CO)[C@@H](O)[C@H](O)[C@H]3O[C@@H]3O[C@@H](C)[C@H](O)[C@@H](O)[C@H]3O)cc2O)cc1O` [NHDC, neohesperidin dihydrochalcone]: 0.9, 1.50 ± 0.01 and 46.4 ± 12.9 µM.
The matching figures for `COC(=O)[C@H](Cc1ccccc1)NC(=O)[C@H](CC(=O)O)NCCC(C)(C)C` [Neotame]: 0.8, 0.63 ± 0.02 and 1.03 ± 0.08 µM.
The matching figures for `C=C(C)[C@@H]1CC=C(/C=N/O)CC1` [Perillartine, perillartine]: 0.9, 1.44 ± 0.20 and 12.7 ± 5 µM.
In the case of `C=C1C[C@@]23CC[C@H]4[C@@](C)(CCC[C@@]4(C)C(=O)O[C@@H]4O[C@H](CO)[C@@H](O)[C@H](O[C@@H]5O[C@H](CO)[C@@H](O)[C@H](O)[C@H]5O)[C@H]4O[C@@H]4O[C@H](CO)[C@@H](O)[C@H](O)[C@H]4O)[C@@H]2CC[C@]1(O[C@@H]1O[C@H](CO)[C@@H](O)[C@H](O[C@@H]2O[C@H](CO)[C@@H](O)[C@H](O)[C@H]2O)[C@H]1O[C@@H]1O[C@H](CO)[C@@H](O)[C@H](O)[C@H]1O)C3` [Rebaudioside M, rebaudioside M], the “R1 = Variant EC50/WT EC50” value is reported as 0.6 and the “Max ΔF/F0” value came to 1.21 ± 0.05. In addition, the EC50 (read-out: EC50) was 23 ± 2.6 µM.
The matching figures for `OC[C@H]1O[C@H](O[C@]2(CCl)O[C@H](CCl)[C@@H](O)[C@@H]2O)[C@H](O)[C@@H](O)[C@H]1Cl` [Sucralose]: 1.4, 0.76 ± 0.03 and 149 ± 12 µM.
Turning to “brazzein (QDKCKKVYENYPVSKCQLANQCNYDCKLDKHARSGECFYDEKRNLQCICDYCEY; ends and bridges not checked; cysteine pairing not given here; UniProt P56552 1-54, looked up) [sweet-tasting protein obtained by recombinant production using the yeast Pichia pastoris]”, the “R1 = Variant EC50/WT EC50” value is 0.7 and the “Max ΔF/F0” value is on record as 1.06 ± 0.06. The EC50 (brazzein) is 80.7 ± 14.8 µg/mL.
As for thaumatin, the “R1 = Variant EC50/WT EC50” value came out at 0.8 and the “Max ΔF/F0” value is listed as 0.86 ± 0.06.

B1: thaumatin (protein)
chain: ATFEIVNRCSYTVWAAASKGDAALDAGGRQLNSGESWTINVEPGTKGGKIWARTDCYFDDSGSGICKTGDCGGLLRCKRFGRPPTTLAEFSLNQYGKDYIDISNIKGFNVPMDFSPTTRGCRGVRCAADIVGQCPAKLKAPGGGCNDACTVFQTSEYCCTTGKCGPTEYSRFFKRLCPDAFSYVLDKPTTVTCPGSSNYRVTFCPTA
modifications: Eight disulfides
notes: sweet-tasting plant protein, E957
For B1, the EC50 (read-out: EC50) was 7.8 ± 1.3 µM.

The term EC50 denotes the concentration at which the effect is half-maximal.

Source of the values: paper PMC11945486, “TAS1R2/TAS1R3 Single-Nucleotide Polymorphisms Affect Sweet Taste Receptor Activation by Sweeteners: The SWEET Project” (Nutrients, 2025).
